Test results reported in article PMC3855626 (Biochemistry, 2013).
Several values for one entry are separate records, joined by “and”; a condition that tells them apart may be missing. Equal values may be shown once. Marks after values point to notes of the source that are not given here.

Assays:
M3 D114N/D148N [1] = target: T1, M3 D114N/D148N (Homo sapiens, UniProt P20309, D114N/D148N)
wild type M4 receptors = format: binding, human
M2 wild type = M2 wild type (Homo sapiens, UniProt P08172); format: binding
M3 D148N + M3 D114N = format: binding, human
M4 D78N/D112N [2] = target: T2, M4 D78N/D112N (Homo sapiens, UniProt P08173, D112N/D78N); format: binding
guinea pig ileum = conditions: cited from earlier work
[3] = target: wild type M2 muscarinic receptors (Homo sapiens, UniProt P08172); format: binding
M2 D69N/D103N [4] = target: T3, M2 D69N/D103N (Homo sapiens, UniProt P08172, D103N/D69N); format: binding
M2 D69N/D103N [5] = target: T3, M2 D69N/D103N; assay: biochemical; format: binding
M2 D103N + M2 D69N = format: binding, human
M3 D114N/D148N [6] = target: T1, M3 D114N/D148N; format: binding
M4 D112N = format: binding, human
M2 D69N = format: binding, human
M3 D114N = format: binding, human
M4 receptors = format: binding, human
M4 D1 12N + M4 D78N = format: binding, human
[7] = system: M1 – M4 muscarinic receptors; format: binding, human
M4 D78N/D112N [8] = target: T2, M4 D78N/D112N; assay: biochemical; format: binding
M3 D148N = format: binding, human
M2 D69N/D103N [9] = target: T3, M2 D69N/D103N; format: binding; remark: listed apart in the source
wild type M4 receptor = wild type M4 receptor (Homo sapiens, UniProt P08173); assay: biochemical; format: binding
M4 D78N/D112N [10] = target: T2, M4 D78N/D112N; format: binding; remark: listed apart in the source
M2 D103N = M2 D103N (Homo sapiens, UniProt P08172, D103N); format: binding
M3 receptors = format: binding, human
M4 D78N = format: binding, human
[11] = target: wild type M1 muscarinic receptors (Homo sapiens, UniProt P11229); format: binding
[12] = system: cerebral muscarinic receptors; format: binding, rat
[13] = read-out: inhibition of [3H]NMS binding

T3 sequence (P08172 whole entry D69N/D103N, looked up): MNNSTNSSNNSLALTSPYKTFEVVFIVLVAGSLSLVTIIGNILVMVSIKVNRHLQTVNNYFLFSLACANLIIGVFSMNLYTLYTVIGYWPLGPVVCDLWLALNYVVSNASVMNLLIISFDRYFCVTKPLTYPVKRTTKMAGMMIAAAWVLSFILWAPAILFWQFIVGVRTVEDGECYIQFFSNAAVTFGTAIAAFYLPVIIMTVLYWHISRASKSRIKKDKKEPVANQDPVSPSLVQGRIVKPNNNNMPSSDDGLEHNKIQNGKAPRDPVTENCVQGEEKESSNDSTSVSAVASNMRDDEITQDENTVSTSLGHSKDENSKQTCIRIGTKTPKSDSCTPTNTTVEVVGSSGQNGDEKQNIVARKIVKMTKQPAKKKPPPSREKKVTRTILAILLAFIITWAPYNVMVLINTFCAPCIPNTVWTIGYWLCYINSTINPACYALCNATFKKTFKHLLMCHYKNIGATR
T2 sequence (P08173 whole entry D78N/D112N, looked up): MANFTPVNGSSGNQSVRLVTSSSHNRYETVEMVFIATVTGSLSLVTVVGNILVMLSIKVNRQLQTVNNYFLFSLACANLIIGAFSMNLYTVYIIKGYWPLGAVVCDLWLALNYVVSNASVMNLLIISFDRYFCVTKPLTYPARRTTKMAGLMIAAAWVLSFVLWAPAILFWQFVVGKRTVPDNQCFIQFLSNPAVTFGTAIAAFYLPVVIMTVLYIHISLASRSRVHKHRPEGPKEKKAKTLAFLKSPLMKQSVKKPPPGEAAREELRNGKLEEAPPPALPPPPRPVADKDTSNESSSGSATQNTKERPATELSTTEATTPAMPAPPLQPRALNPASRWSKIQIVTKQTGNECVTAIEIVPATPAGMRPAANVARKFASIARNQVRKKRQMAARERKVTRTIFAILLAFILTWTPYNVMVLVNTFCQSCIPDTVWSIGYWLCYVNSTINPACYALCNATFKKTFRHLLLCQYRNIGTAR
Chain of wild type M4 receptor (P08173 whole entry): as the sequence (P08173 whole entry D78N/D112N, looked up) above, with N78D, N112D counted along it
T1 sequence (P20309 whole entry D114N/D148N, looked up): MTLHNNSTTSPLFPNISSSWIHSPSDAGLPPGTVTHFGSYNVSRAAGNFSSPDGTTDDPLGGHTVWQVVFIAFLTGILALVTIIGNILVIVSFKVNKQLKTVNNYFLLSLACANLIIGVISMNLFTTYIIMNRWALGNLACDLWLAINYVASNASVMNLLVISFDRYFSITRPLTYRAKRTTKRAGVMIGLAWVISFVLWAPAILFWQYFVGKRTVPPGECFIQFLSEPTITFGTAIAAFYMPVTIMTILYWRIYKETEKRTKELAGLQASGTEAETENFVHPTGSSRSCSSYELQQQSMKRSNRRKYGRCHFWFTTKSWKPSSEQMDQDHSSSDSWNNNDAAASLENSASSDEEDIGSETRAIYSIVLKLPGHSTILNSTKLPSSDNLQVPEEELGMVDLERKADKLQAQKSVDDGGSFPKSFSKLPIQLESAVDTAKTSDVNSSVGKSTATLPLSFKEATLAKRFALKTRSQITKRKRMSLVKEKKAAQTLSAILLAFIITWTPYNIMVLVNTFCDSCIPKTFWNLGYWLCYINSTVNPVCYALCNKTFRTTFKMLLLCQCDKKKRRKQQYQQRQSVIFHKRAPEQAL
Chain of M2 wild type (P08172 whole entry): as the sequence (P08172 whole entry D69N/D103N, looked up) above, with N69D, N103D counted along it
Chain of wild type M1 muscarinic receptors (P11229 whole entry): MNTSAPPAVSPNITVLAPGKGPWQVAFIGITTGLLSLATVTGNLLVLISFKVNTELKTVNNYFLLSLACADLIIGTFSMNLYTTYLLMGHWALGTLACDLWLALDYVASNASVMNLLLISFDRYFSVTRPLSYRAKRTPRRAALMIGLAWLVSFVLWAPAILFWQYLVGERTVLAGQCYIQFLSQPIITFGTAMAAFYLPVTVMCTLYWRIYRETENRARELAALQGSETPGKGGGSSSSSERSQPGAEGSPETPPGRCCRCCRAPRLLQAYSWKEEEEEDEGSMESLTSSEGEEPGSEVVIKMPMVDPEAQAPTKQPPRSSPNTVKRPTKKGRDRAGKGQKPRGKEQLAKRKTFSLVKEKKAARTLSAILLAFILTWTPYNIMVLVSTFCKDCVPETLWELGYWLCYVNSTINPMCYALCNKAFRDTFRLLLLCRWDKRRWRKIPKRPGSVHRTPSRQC
Chain of M2 D103N (P08172 whole entry D103N, looked up): as the sequence (P08172 whole entry D69N/D103N, looked up) above, with N69D counted along it
Chain of wild type M2 muscarinic receptors (P08172 whole entry): as the sequence (P08172 whole entry D69N/D103N, looked up) above, with N69D, N103D counted along it

Compound: CC(=O)OCC[N+](C)(C)C [Acetylcholine, acetylcholine]
- Hill slope of competition curve (M3 D114N/D148N [1]): 0.56
- affinity relative to the aziridinium ion of AChM (wild type M4 receptors): five-fold higher affinity
- Hill slope of competition curve (M2 wild type): 0.69
- affinity relative to the aziridinium ion of AChM (M2 wild type): about 15 fold

Compound: CN(CC#CCOC(=O)Nc1cccc(Cl)c1)CCBr [BR384, 4-[(2-bromoethyl)methyl-amino]-2-butynyl N-(3-chlorophenyl)carbamate]
- Δ log K1 (M3 D148N + M3 D114N): 0.48 ± 0.08
- Δ log K1 (M4 D78N/D112N [2]): 0.69 ± 0.32 ^c
- contractile action (guinea pig ileum): lack of contractile action
- receptors alkylated after adding the stopping solution [3]: 28%
- alkylation (M2 D69N/D103N [4]): 48 ± 4.2%
- IC50 (M2 D69N/D103N [5]): 28.8 µM
- inhibition at 300 µM (M2 D69N/D103N [5]; [13]): 97 ± 1.3%
- Δ log K1 (M2 D103N + M2 D69N): −0.17 ± 0.43
- Δ log K1 (M3 D114N/D148N [6]): 0.75 ± 0.12
- Δ log K1 (M4 D112N): 0.65 ± 0.13
- increase in affinity relative to wild type (M2 D69N): about 30 fold
- Δ log K1 (M2 D69N): −1.39 ± 0.35
- increase in affinity relative to wild type (M3 D114N): ~5 fold
- Δ log K1 (M3 D114N): −0.69 ± 0.02
- maximum estimate of b (M4 receptors): 0.085
- Δ log K1 (M4 D1 12N + M4 D78N): −0.62 ± 0.17
- affinity of the aziridinium ion relative to McN-A-343 [7]: four- to seven-fold higher affinity
- IC50 (M4 D78N/D112N [8]): 69.2 µM
- inhibition at 300 µM (M4 D78N/D112N [8]; [13]): 88 ± 0.7%
- Δ log K1 (M3 D148N): 1.17 ± 0.07
- Δ log K1 (M2 D69N/D103N [9]): −0.25 ± 0.25
- average estimate of k1 (wild type M4 receptor): 0.82 min⁻¹
- b (proportion of receptors that can bind [3H]NMS but not be alkylated) (wild type M4 receptor): 7.7 ± 1.8% and 7.7%
- k1 (rate constant for alkylation) (wild type M4 receptor): 0.93 ± .020 min⁻¹
- rate constant (k1) (wild type M4 receptor): 0.99 ± 0.045 min⁻¹ and 1.05 ± 0.10 min⁻¹ and 0.75 ± 0.06 min⁻¹ and 0.74 ± 0.086 min⁻¹
- Kd (wild type M4 receptor; average estimate of log K1): 8.71 µM
- Kd (wild type M4 receptor; log K1 (dissociation constant of the aziridinium ion)): 8.91 µM
- Kd (wild type M4 receptor; log dissociation constant (log K1)): 12.3 µM and 7.94 µM and 6.76 µM
- alkylation (M4 D78N/D112N [10]): 44 ± 0.6%
- Δ log K1 (M2 D103N): 1.23 ± 0.26
- maximum estimate of b (M3 receptors): 0.067
- increase in affinity relative to wild type (M4 D78N): about 30 fold
- Δ log K1 (M4 D78N): −1.27 ± 0.11
- receptors alkylated after adding the stopping solution [11]: 28%
- rate of recovery of [3H]NMS binding [12]: negligible
